According to US9045531B2, “HLA-binding peptide, precursor thereof, and DNA fragment and recombinant vector coding for said HLA-binding peptide” (NEC CORPORATION, priority 2006, dated 2015):
No end group written: not given here.

Experiments:
[1] = test system: human HLA-A type molecule; assay: Binding experiments, summary statement for HLA-A type molecules; settings: summary of the binding experiments
Protocol: The ability of a peptide to bind to an HLA-A2 molecule, which is a product of the HLA-A*0201 gene, was measured using strain JY cells (obtained from ATCC (American Type Culture Collection)) expressing the HLA-A*0201.
The ability of a peptide to bind to an HLA-A2 molecule, which is a product of the HLA-A*0206 gene, was measured using RA2.6 cells (cell strain newly prepared in Kochi University) in which cDNA of the HLA-A*0206 gene is expressed in RAMS cells, which are mouse TAP peptide transporter deficient cells.

[2] = test system: HLA-A24 molecule (product of the HLA-A*2402 gene); assay: Experiment of binding peptide to HLA-A2402 molecule (C1R-A24 cells, flow cytometry); parameters: species or system human; settings: HLA-A24 (HLA-A*2402)
Protocol: The ability of a peptide to bind to an HLA-A24 molecule, which is a product of the HLA-A*2402 gene, was measured using C1R-A24 cells expressing the HLA-A24 gene (cells produced by Professor Masafumi Takiguchi, Kumamoto University being supplied with permission).
After neutralization, purified β2m was added to C1R-A24 cells, the obtained product was added to serial dilutions of a peptide, and incubated on ice for 4 hours.
Subsequently, the MHC-pep count per C1R-A24 cell (proportional to the strength of fluorescence of the above-mentioned fluorescent antibody) was quantitatively measured using a FACScan fluorescence-activated cell sorter (Becton Dickinson Biosciences). A binding dissociation constant Kd value between the HLA-A24 molecule and the peptide was calculated from the average strength of fluorescence per cell by a published method (Udaka et al., Immunogenetics, 51, 816-828, 2000).

ATNPIVPSF [SEQ ID NO: 6]
binding to a human HLA-A type molecule (result in words) [1]: experimentally confirmed to bind
Binding Experiment Data (−log Kd value) [2]: 7.564

ATNPVVPSF [SEQ ID NO: 7]
binding to a human HLA-A type molecule (result in words) [1]: experimentally confirmed to bind
Binding Experiment Data (−log Kd value) [2]: 7.808

ATSPIVPSF [SEQ ID NO: 9]
binding to a human HLA-A type molecule (result in words) [1]: experimentally confirmed to bind
Binding Experiment Data (−log Kd value) [2]: 7.802

DMNNEGSYF [SEQ ID NO: 18]
binding to a human HLA-A type molecule (result in words) [1]: experimentally confirmed to bind
Binding Experiment Data (−log Kd value) [2]: 5.374

DMSNEGSYF [SEQ ID NO: 16]
binding to a human HLA-A type molecule (result in words) [1]: experimentally confirmed to bind

FQGRGVFEL [SEQ ID NO: 48]
binding to a human HLA-A type molecule (result in words) [1]: experimentally confirmed to bind

GQISVQPTF [SEQ ID NO: 5]
binding to a human HLA-A type molecule (result in words) [1]: experimentally confirmed to bind
Binding Experiment Data (−log Kd value) [2]: 7.191

IFLARSALI [SEQ ID NO: 4]
binding to a human HLA-A type molecule (result in words) [1]: experimentally confirmed to bind
Binding Experiment Data (−log Kd value) [2]: 8.012

IYKRRDGKW [SEQ ID NO: 17]
binding to a human HLA-A type molecule (result in words) [1]: experimentally confirmed to bind
Binding Experiment Data (−log Kd value) [2]: 7.326

IYKRREGKW [SEQ ID NO: 13]
binding to a human HLA-A type molecule (result in words) [1]: experimentally confirmed to bind
Binding Experiment Data (−log Kd value) [2]: 7.25

IYRRRDGKW [SEQ ID NO: 10]
binding to a human HLA-A type molecule (result in words) [1]: experimentally confirmed to bind
Binding Experiment Data (−log Kd value) [2]: 7.497

LIFLARSAL [SEQ ID NO: 52, LIFLARSAL]
binding to a human HLA-A type molecule (result in words) [1]: experimentally confirmed to bind

LILYDKEEI [SEQ ID NO: 51]
binding to a human HLA-A type molecule (result in words) [1]: experimentally confirmed to bind

LQNSQVFSL [SEQ ID NO: 49]
binding to a human HLA-A type molecule (result in words) [1]: experimentally confirmed to bind

NLPFERATI [SEQ ID NO: 8]
Binding Experiment Data (−log Kd value) [2]: 7.764

NLPFERATI [SEQ ID NO: 25]
binding to a human HLA-A type molecule (result in words) [1]: experimentally confirmed to bind

RLIQNSITI [SEQ ID NO: 3]
binding to a human HLA-A type molecule (result in words) [1]: experimentally confirmed to bind

RLLQNSQVF [SEQ ID NO: 2]
binding to a human HLA-A type molecule (result in words) [1]: experimentally confirmed to bind
Binding Experiment Data (−log Kd value) [2]: 6.915

RMVGGIGRF [SEQ ID NO: 14]
binding to a human HLA-A type molecule (result in words) [1]: experimentally confirmed to bind
Binding Experiment Data (−log Kd value) [2]: 7.543

RMVSGIGRF [SEQ ID NO: 15]
binding to a human HLA-A type molecule (result in words) [1]: experimentally confirmed to bind
Binding Experiment Data (−log Kd value) [2]: 7.436

SLPFERATI [SEQ ID NO: 11]
binding to a human HLA-A type molecule (result in words) [1]: experimentally confirmed to bind
Binding Experiment Data (−log Kd value) [2]: 7.719

VGIDPFRLL [SEQ ID NO: 12]
binding to a human HLA-A type molecule (result in words) [1]: experimentally confirmed to bind
Binding Experiment Data (−log Kd value) [2]: 5.12

WMACHSAAF [SEQ ID NO: 1]
binding to a human HLA-A type molecule (result in words) [1]: experimentally confirmed to bind

YLEEHPSAG [SEQ ID NO: 21]
binding to a human HLA-A type molecule (result in words) [1]: experimentally confirmed to bind

YLEENPSAG [SEQ ID NO: 26]
binding to a human HLA-A type molecule (result in words) [1]: experimentally confirmed to bind
